{"source": "the supplement of paper PMC11208160"}
{"assay": "recombinant UMI read abundance after kanamycin selection (control-corrected) (log10(CPM+1)); higher = more efficient recombination; extreme values may be limits of the assay; sequences stand for … in AGTGCAGAGAAAATCGGCCAGTTTTCTCTGCCTGCAGTCCGCATGCCGTGGGACCCCTTGGGTTCTAACCTGTTGCCTAGATTTATGCAGCGGACTGCCTTTCTCCCAAAGTGATAAACCGG…AGGTTGGTTTCACT; site = the 11-nt donor", "procedure,_shortened": "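In Escherichia coli, a pool of donor and donor-binding-loop pairs, each with a 12-nt UMI, was tested for the IS621 bridge recombinase. Plating was on IPTG (0.07 mM) plus kanamycin, or without selection, in two replicates. Recombinant UMIs were amplified by PCR across the donor–target junction and sequenced, and counts were reported as log10(CPM+1) after averaging and control-derived scaling.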"}
{"sequence": "ACTAAAACATGGACCGGTTTTCCCGGTAATCCGTATTTGAG (site ACTAAAACTCT)", "recombinant UMI read abundance (log10)": 1.77}
{"sequence": "GCTTGCCCATGGACCGGTTTTCCCGGTAATCCGTATTTGAA (site GCTTGCCCTAT)", "recombinant UMI read abundance (log10)": 0}
{"sequence": "AGGCCTACATGGACCGGTTTTCCCGGTAATCCGTATTTGAC (site AGGGCTACTGT)", "recombinant UMI read abundance (log10)": 0}
{"sequence": "ACCTAGACATGGACCGGTTTTCCCGGTAATCCGTATTTGGT (site ACCTAGACTGC)", "recombinant UMI read abundance (log10)": 0}
{"sequence": "GAAGAATCATGGACCGGTTTTCCCGGTAATCCGTATTTGTT (site GAAGAGTCTAA)", "recombinant UMI read abundance (log10)": 1.59}
{"sequence": "GGTACGGCATGGACCGGTTTTCCCGGTAATCCGTATTTGTT (site GGTACGCCTAA)", "recombinant UMI read abundance (log10)": 0.0122}
{"sequence": "CTCTACTCATGGACCGGTTTTCCCGGTAATCCGTATTTGCT (site CTCTACACTAG)", "recombinant UMI read abundance (log10)": 0.869}
{"sequence": "GGGTTCCCATGGACCGGTTTTCCCGGTAATCCGTATTTGTC (site GGGTTCCCTGA)", "recombinant UMI read abundance (log10)": 0}
{"sequence": "GGGGTGGCATGGACCGGTTTTCCCGGTAATCCGTATTTGGT (site GGGGTGGCTAC)", "recombinant UMI read abundance (log10)": 0.659}
{"sequence": "CGGCGTACATGGACCGGTTTTCCCGGTAATCCGTATTTGTC (site CGGCGTACTGA)", "recombinant UMI read abundance (log10)": 2.31}
{"sequence": "CTTTTGGCATGGACCGGTTTTCCCGGTAATCCGTATTTGCT (site CCTTTGGCTAG)", "recombinant UMI read abundance (log10)": 0}
{"sequence": "CTCGCTACATGGACCGGTTTTCCCGGTAATCCGTATTTGAT (site CTCGCTACTAT)", "recombinant UMI read abundance (log10)": 1.7}
{"sequence": "GAAGTCTCATGGACCGGTTTTCCCGGTAATCCGTATTTGGT (site GAAGTCTCTAC)", "recombinant UMI read abundance (log10)": 2.53}
{"sequence": "GTAAGTACATGGACCGGTTTTCCCGGTAATCCGTATTTGGA (site GTAAGTACTTC)", "recombinant UMI read abundance (log10)": 1.17}
{"sequence": "TATTTGTCATGGACCGGTTTTCCCGGTAATCCGTATTTGTG (site TATTTGGCTCA)", "recombinant UMI read abundance (log10)": 0.0347}
{"sequence": "GGTACGTCATGGACCGGTTTTCCCGGTAATCCGTATTTGTG (site GGTACGTCTGA)", "recombinant UMI read abundance (log10)": 0}
{"sequence": "CCATCATCATGGACCGGTTTTCCCGGTAATCCGTATTTGCT (site CGATCATCTAG)", "recombinant UMI read abundance (log10)": 0}
{"sequence": "CGAGGACCATGGACCGGTTTTCCCGGTAATCCGTATTTGGG (site CAAGGACCTCC)", "recombinant UMI read abundance (log10)": 0.019}
{"sequence": "CTAGAATCATGGACCGGTTTTCCCGGTAATCCGTATTTGAC (site CTAGGATCTGT)", "recombinant UMI read abundance (log10)": 1.28}
{"sequence": "CCCTTCTCATGGACCGGTTTTCCCGGTAATCCGTATTTGGA (site CCCTTCTCTTC)", "recombinant UMI read abundance (log10)": 0.21}
{"sequence": "GACTCCTCATGGACCGGTTTTCCCGGTAATCCGTATTTGAA (site GACTCCTCTTT)", "recombinant UMI read abundance (log10)": 1.75}
{"sequence": "CTGTCGACATGGACCGGTTTTCCCGGTAATCCGTATTTGGG (site CTGTCGACTCC)", "recombinant UMI read abundance (log10)": 0.0289}
{"sequence": "AGGAACACATGGACCGGTTTTCCCGGTAATCCGTATTTGAA (site AGGAAGACTTG)", "recombinant UMI read abundance (log10)": 0}
{"sequence": "TTATTACCATGGACCGGTTTTCCCGGTAATCCGTATTTGAG (site TTATTACCTCT)", "recombinant UMI read abundance (log10)": 0.00691}
{"sequence": "CATTATGCATGGACCGGTTTTCCCGGTAATCCGTATTTGGA (site AATTATGCTTC)", "recombinant UMI read abundance (log10)": 0.0205}
{"sequence": "GCTACCTCATGGACCGGTTTTCCCGGTAATCCGTATTTGTC (site GCTACCTCTGA)", "recombinant UMI read abundance (log10)": 2.17}
{"sequence": "GTTGTTCCATGGACCGGTTTTCCCGGTAATCCGTATTTGGG (site GTTGTTCCTGC)", "recombinant UMI read abundance (log10)": 0}
{"sequence": "GTTTGCGCATGGACCGGTTTTCCCGGTAATCCGTATTTGTC (site GTTTGCGCTGA)", "recombinant UMI read abundance (log10)": 1.54}
{"sequence": "ATGTACACATGGACCGGTTTTCCCGGTAATCCGTATTTGAA (site ATGTACACTTT)", "recombinant UMI read abundance (log10)": 1.82}
{"sequence": "CCACGTGCATGGACCGGTTTTCCCGGTAATCCGTATTTGAT (site CCATGTGCTAT)", "recombinant UMI read abundance (log10)": 0.0143}
{"sequence": "AATGTATCATGGACCGGTTTTCCCGGTAATCCGTATTTGCT (site AATGTAGCTAG)", "recombinant UMI read abundance (log10)": 0}
{"sequence": "TGCAGTGCATGGACCGGTTTTCCCGGTAATCCGTATTTGTA (site TGCAGTGCTTA)", "recombinant UMI read abundance (log10)": 0.853}
{"sequence": "CGGACATCATGGACCGGTTTTCCCGGTAATCCGTATTTGCT (site CGGACATCTGG)", "recombinant UMI read abundance (log10)": 0.0128}
{"sequence": "TCGGTACCATGGACCGGTTTTCCCGGTAATCCGTATTTGCC (site TCGGTACCTGG)", "recombinant UMI read abundance (log10)": 0}
{"sequence": "GCGTCAACATGGACCGGTTTTCCCGGTAATCCGTATTTGCG (site GCGTCAACTCG)", "recombinant UMI read abundance (log10)": 0.00614}
{"sequence": "GTGTGCACATGGACCGGTTTTCCCGGTAATCCGTATTTGTA (site GTATGCACTTA)", "recombinant UMI read abundance (log10)": 1.48}
{"sequence": "ACTCCTGCATGGACCGGTTTTCCCGGTAATCCGTATTTGAC (site ACTCCTGCTGT)", "recombinant UMI read abundance (log10)": 0.671}
{"sequence": "TACAATACATGGACCGGTTTTCCCGGTAATCCGTATTTGCA (site TAAAATACTTG)", "recombinant UMI read abundance (log10)": 0}
{"sequence": "GCTTGACCATGGACCGGTTTTCCCGGTAATCCGTATTTGAT (site GCTTGTCCTAT)", "recombinant UMI read abundance (log10)": 0.00374}
{"sequence": "TGTGTGACATGGACCGGTTTTCCCGGTAATCCGTATTTGTC (site TGTGTGACTGA)", "recombinant UMI read abundance (log10)": 0}
{"sequence": "CTCAATTCATGGACCGGTTTTCCCGGTAATCCGTATTTGCT (site CTCAATTCTAG)", "recombinant UMI read abundance (log10)": 1.7}
{"sequence": "TCCATTTCATGGACCGGTTTTCCCGGTAATCCGTATTTGCC (site TCCACTTCTGG)", "recombinant UMI read abundance (log10)": 0}
{"sequence": "GCAGATTCATGGACCGGTTTTCCCGGTAATCCGTATTTGTT (site GAAGATTCTAA)", "recombinant UMI read abundance (log10)": 0}
{"sequence": "CTCTACACATGGACCGGTTTTCCCGGTAATCCGTATTTGCT (site CTCTACACTGG)", "recombinant UMI read abundance (log10)": 1.37}
{"sequence": "TTTGAGACATGGACCGGTTTTCCCGGTAATCCGTATTTGGT (site CTTGAGACTAC)", "recombinant UMI read abundance (log10)": 0.0146}
{"sequence": "TAATGACCATGGACCGGTTTTCCCGGTAATCCGTATTTGGG (site TAATGACCTCC)", "recombinant UMI read abundance (log10)": 0.00316}
{"sequence": "GGTACGTCATGGACCGGTTTTCCCGGTAATCCGTATTTGTT (site GGTCCGTCTAA)", "recombinant UMI read abundance (log10)": 0.0113}
{"sequence": "GCTAGAACATGGACCGGTTTTCCCGGTAATCCGTATTTGGC (site GGTAGAACTGC)", "recombinant UMI read abundance (log10)": 0}
{"sequence": "CTGCAACCATGGACCGGTTTTCCCGGTAATCCGTATTTGCT (site CTGCTACCTAG)", "recombinant UMI read abundance (log10)": 0}
{"sequence": "CCATCATCATGGACCGGTTTTCCCGGTAATCCGTATTTGTT (site CCATCATCTAA)", "recombinant UMI read abundance (log10)": 0.00419}
{"sequence": "GGCAAGCCATGGACCGGTTTTCCCGGTAATCCGTATTTGAA (site GGCAAGCCTTT)", "recombinant UMI read abundance (log10)": 0.247}
{"sequence": "GCGATAACATGGACCGGTTTTCCCGGTAATCCGTATTTGCT (site GCGACAACTAG)", "recombinant UMI read abundance (log10)": 0.00488}
{"sequence": "CGCCGTACATGGACCGGTTTTCCCGGTAATCCGTATTTGCG (site CGCCGTACTGG)", "recombinant UMI read abundance (log10)": 0}
{"sequence": "GATTGTCCATGGACCGGTTTTCCCGGTAATCCGTATTTGCT (site GATTGTCCTAG)", "recombinant UMI read abundance (log10)": 0}
{"sequence": "GTTGTTCCATGGACCGGTTTTCCCGGTAATCCGTATTTGAT (site GTTGTTCCTAT)", "recombinant UMI read abundance (log10)": 0.00518}
{"sequence": "GGTACGTCATGGACCGGTTTTCCCGGTAATCCGTATTTGTT (site GGTACGTCTTA)", "recombinant UMI read abundance (log10)": 0.0065}
{"sequence": "CGTAAGACATGGACCGGTTTTCCCGGTAATCCGTATTTGCA (site CGTAAGACTTG)", "recombinant UMI read abundance (log10)": 2.68}
{"sequence": "GGCCCGCCATGGACCGGTTTTCCCGGTAATCCGTATTTGAA (site GGCCCGCCTTT)", "recombinant UMI read abundance (log10)": 0}
{"sequence": "AGGAAGACATGGACCGGTTTTCCCGGTAATCCGTATTTGCA (site AGCACGACTTG)", "recombinant UMI read abundance (log10)": 0}
{"sequence": "AGGAAGACATGGACCGGTTTTCCCGGTAATCCGTATTTGCA (site AGGACGACTAG)", "recombinant UMI read abundance (log10)": 0.0203}
{"sequence": "CGCGCGCCATGGACCGGTTTTCCCGGTAATCCGTATTTGTT (site CGCGCGCCTAA)", "recombinant UMI read abundance (log10)": 0.0124}
{"sequence": "AGGACTACATGGACCGGTTTTCCCGGTAATCCGTATTTGAG (site AGGACTACTCT)", "recombinant UMI read abundance (log10)": 1.54}
{"sequence": "ACAAGAACATGGACCGGTTTTCCCGGTAATCCGTATTTGTC (site ACACGAACTGA)", "recombinant UMI read abundance (log10)": 0.00498}
{"sequence": "GGTCCAGCATGGACCGGTTTTCCCGGTAATCCGTATTTGAA (site GGTCCAGCTTT)", "recombinant UMI read abundance (log10)": 0.307}
{"sequence": "ACTAGACCATGGACCGGTTTTCCCGGTAATCCGTATTTGAG (site ACTAGAACTCT)", "recombinant UMI read abundance (log10)": 0.103}
{"sequence": "GTTGTTACATGGACCGGTTTTCCCGGTAATCCGTATTTGGT (site GTTGTTACTAC)", "recombinant UMI read abundance (log10)": 1.07}
{"sequence": "ATTTAGTCATGGACCGGTTTTCCCGGTAATCCGTATTTGTT (site CACATCCCTTC)", "recombinant UMI read abundance (log10)": 0.0539}
{"sequence": "AGGAAGACATGGACCGGTTTTCCCGGTAATCCGTATTTGCA (site TGGGAGACTTG)", "recombinant UMI read abundance (log10)": 0}
{"sequence": "GGGGCACCATGGACCGGTTTTCCCGGTAATCCGTATTTGAA (site GGGGCACCTTG)", "recombinant UMI read abundance (log10)": 0}
{"sequence": "GCGAAAACATGGACCGGTTTTCCCGGTAATCCGTATTTGCT (site GCGAAAACTAG)", "recombinant UMI read abundance (log10)": 0.854}
{"sequence": "AGCCTTTCATGGACCGGTTTTCCCGGTAATCCGTATTTGGC (site AGCCTTTCTGA)", "recombinant UMI read abundance (log10)": 0}
{"sequence": "CACTTGGCATGGACCGGTTTTCCCGGTAATCCGTATTTGGA (site GACTTGGCTTC)", "recombinant UMI read abundance (log10)": 0.112}
{"sequence": "CCCTTTACATGGACCGGTTTTCCCGGTAATCCGTATTTGCT (site CCCTTTACTAG)", "recombinant UMI read abundance (log10)": 1.76}
{"sequence": "TAGCTAGCATGGACCGGTTTTCCCGGTAATCCGTATTTGAA (site TAGCTACCTTT)", "recombinant UMI read abundance (log10)": 0.0202}
{"sequence": "GTGAGCGCATGGACCGGTTTTCCCGGTAATCCGTATTTGAG (site GTGAGCGCTCT)", "recombinant UMI read abundance (log10)": 1.68}
